Results reported in patent US10145848B2, “Small-molecule hydrophobic tagging of fusion proteins and induced degradation of same” (YALE UNIVERSITY, priority 2010, dated 2018).
Entries after “also recorded” stand apart in the source; their conditions may differ.

Key:
[1] = Maximum tolerated dose experiment / weight gain in nude mice; assay type: in vivo
From the text: Nude mice were daily IP injected with indicated concentrations of HyT13 and were monitored for weight gain during the 14-day experiment. Shown is the percent weight gained during the 14-day period for each treatment group ±SEM. Each treatment group consisted of 7 mice.
To examine whether the HaloTag:HyT13 based system could be used in mouse models to relieve the H-RasG12V-driven tumor burden, we first evaluated the pharmacokinetics of HyT13. We performed a maximum tolerated dose experiment with HyT13 in nude mice at doses up to 100 mg/kg over a 14-day treatment regimen. […] Next, we sought to determine the serum bioavailability of HyT13 following injections. HyT13 was administered at 25 mg/kg by intraperitoneal (IP) injection into Swiss Webster mice and the serum was collected at 1 and 24 hours post-injection. At 1 hour post HyT13 administration the blood serum concentration was approximately 2 μM, and by 24 hours the HyT13 concentration had dropped to about 500 nM (FIG. 10). Based on our previous experiments in a cell culture setting, we speculated that these serum HyT13 concentrations would be sufficient to suppress H-RasG12V tumor formation in mice. To test this, we injected NIH-3T3 cells expressing HA-HaloTag-H-RasG12V into the flank of nude mice and on the same day started a daily treatment regimen of vehicle, 25 mg/kg HyT13 or 100 mg/kg HyT13. […]

HA-HaloTag-Smad5 = molecular target: T1, HA-HaloTag-Smad5 (Rhodococcus rhodochrous, UniProt P0A3G2, C176G/H272F/K175M/Y273L); assay: Zebrafish embryo HA-HaloTag-Smad5 degradation (immunoblot); assay type: in vivo, Danio rerio; details: 10 μM, 24 hours
T1 construct: The HaloTag protein was obtained from pHT2 vector (Promega); Danio rerio Smad5 (fusion partner); expressed in transfected cells; host or cells: zebrafish (TLF line) embryos injected with in vitro transcribed cRNA at the one-cell stage
Method: The wild-type fish line TLF was used for this study. The HA-HaloTag-Smad5 in pCS2+ plasmid was in vitro transcribed with the SP6 transcription kit (Ambion). The mRNA was injected at 100 ng/μL at the one cell stage and embryos were raised to the 256-cell stage, when they were moved to glass depression slides (10-per-well) and put in 1 ml E2 media with or without HyT13 (10 μM). Embryos were cultured at 28.6° C. for 24 hours and then dechorionated and de-yolked as described^43. Approximately 60 embryos per condition were collected for immunoblot analysis, as described above.
We also explored the possibility of employing the hydrophobic tagging system in the zebrafish Danio rerio. We injected HA-HaloTag-Smad5 cRNA into zebrafish embryos and then treated the embryos with either vehicle or HyT13.

[2] = Serum HyT13 determination (bio-reporter assay); assay type: in vivo; details: mouse, intraperitoneal, 25 mg/kg IP, Swiss Webster mice, read-out: blood serum concentration
Method: Webster Swiss mice received IP injections of 25 mg/kg of HyT13. The injection volume was 10 μL, consisting of 5 μL, of Cremophor EL excipient and 5 μL, of HyT13 in DMSO. Blood was collected from the carotid artery 1 and 24 hours after the injection. The blood was allowed to coagulate for 10 minutes, centrifuged at 10,000 g for 5 minutes and the serum was pipetted into a new tube. Ten microliters of the serum were used for a bio-reporter assay, consisting of the ability to degrade luciferase activity in HEK 293T luciferase-HaloTag cells. The serum concentration of HyT13 was based on a concentration curve of HyT13 performed alongside the bio-reporter assay. […] Each treatment group consisted of three mice. Shown is the mean serum HyT13 level±SEM.
(§1) To examine whether the HaloTag:HyT13 based system could be used in mouse models to relieve the H-RasG12V-driven tumor burden, we first evaluated the pharmacokinetics of HyT13. We performed a maximum tolerated dose experiment with HyT13 in nude mice at doses up to 100 mg/kg over a 14-day treatment regimen. […] Next, we sought to determine the serum bioavailability of HyT13 following injections. HyT13 was administered at 25 mg/kg by intraperitoneal (IP) injection into Swiss Webster mice and the serum was collected at 1 and 24 hours post-injection. […]

[3] = test system: NIH-3T3 cells expressing HA-HaloTag-H-RasG12V; assay: Tumor formation assay in nude mice; assay type: in vivo; details: 25 mg/kg or 100 mg/kg daily IP
Method: One hundred thousand NIH-3T3 cells expressing HA-HaloTag-H-RasG12V were injected into the flank of anesthetized 6-week old female nu/nu nude mice (Charles River Laboratories). Two hours later, the mice were IP injected with either vehicle (10 μl, volume, with 5 μl, DMSO and 5 μl, of Cremophor EL), 25 mg/kg HyT13 or 100 mg/kg HyT13. The drug injections continued daily until the end of the experiment. Upon the appearance of tumors on day 7, the tumors were measured daily with calipers, and their volumes were calculated using the formula: a(b)^2/2, where a and b represent the longest and shortest diameters of the tumor, respectively.
as §1, with “post-injection. At 1 hour post HyT13 administration the blood serum concentration was approximately 2 μM, and by 24 hours the HyT13 concentration had dropped to about 500 nM (FIG. 10).” for “post-injection.”

[4] = molecular target: T2, HA-EGFP-HaloTag fusion protein (Rhodococcus rhodochrous, UniProt P0A3G2, C176G/H272F/K175M/Y273L); assay: Immunoblotting of HA-EGFP-HaloTag in Flp-In 293 cells; assay type: cell-based
T2 construct: The HaloTag protein was obtained from pHT2 vector (Promega); expressed in transfected cells
Method: Flp-In 293 cells expressing HA-EGFP-HaloTag were treated with indicated concentrations of HyT13 for 24 hours. The lysates were probed with anti-HA and anti-β-actin antibodies, with β-actin serving as a loading control. Shown is quantification of three separate experiments, with error bars representing SEM.
Flp-In 293 cells expressing HA-EGFP-HaloTag cells were treated for the indicated times with 1 μM HyT13 and the lysates were probed with anti-HA and anti-β-actin antibodies. The rightmost sample was treated with HyT13 for 24 hours, after which HyT13-free media was provided for 24 hours. Shown is quantification of three separate experiments, with error bars representing SEM.
The indicated cells were washed twice with cold PBS and the cells were lysed in lysis buffer (1×PBS, 1% NP-40, 1 mM EDTA, 40 mM HEPES) with protease inhibitors. The lysates were cleared by centrifugation at 10,000 g for 5 min. The total protein concentration was determined by Bradford assay and 50 μg of protein was loaded onto an 8% Bis-Tris gel. To solubilize polyubiquitinated and aggregated proteins upon proteasome inhibition^42 samples generated for FIG. 12d were lysed with a SDS lysis buffer (1×PBS, 1% NP-40, 1% SDS, 1% sodium deoxycholate, 1 mM EDTA, 40 mM HEPES) with protease inhibitors. The blots were processed by standard procedures with indicated antibodies, and the band intensities were quantified by ImageJ.
As the luciferase assay relied on the loss-of-activity of the luciferase-HaloTag fusion protein, we wanted to determine whether the decrease in luciferase activity resulted from the degradation of the entire fusion protein or perhaps simply inhibition of luciferase activity. We generated a stable Flp-In 293 cell line with a single integration site containing HA-EGFP-HaloTag fusion protein, and employed this cell line to perform kinetic studies with HyT13. […] Consistent with our previous observations, treatment of these cells with 1 μM of HyT13 for 24 hours reduced the mean fluorescence intensity of cells almost 7-fold. Together, these findings provide the first experimental evidence that hydrophobic tagging represents a viable strategy for the control of protein levels.

For O=C(CC12CC3CC(CC(C3)C1)C2)NCCOCCOCCCCCCCl [HyT13, 2-((3r,5r,7r)-Adamantan-1-yl)-N-(2-(2-((6-chlorohexyl)oxy)ethoxy)ethyl)acetamide], the weight gain ([1]; mice injected daily at 100 mg/kg for 14 days) was “gained weight normally”, the “toxicity / phenotype in mice” value ([1]; nude mice, daily IP, doses up to 100 mg/kg, 14 days) was “No obvious phenotype was observed; also recorded: no observed toxicity” and the “degradation of fusion protein in zebrafish embryos” value (HA-HaloTag-Smad5) was “very efficiently degraded”. For the same compound, the concentration at 1 h ([2]; 1 hour post administration) was ~2000 nM, the concentration at 24 h ([2]; 24 hours) was ~500 nM and the “tumor size relative to vehicle treated mice (times smaller)” value [3] was 6 times. For the same compound, the “time to 50% degradation” value ([4]; 1 μM HyT13) was ≤ 1.5 h, the “time to full degradation effect” value ([4]; 1 μM HyT13) was ≤ 8 h and the “protein level after removal of compound” value ([4]; 1 μM for 24 hours, then removed for 24 hours) was “recovered to half the starting levels”. For the same compound, the “concentration at which maximal degradation effect is achieved” value ([4]; 24 hours, immunoblotting) was 100 nM and the DC50 ([4]; read-out: IC50 of fusion protein degradation, 24 hours, Flp-In 293 cells) was 21 nM.
